What all share (assay type): ADME
Data set [1] has as its target T1, Solute carrier organic anion transporter family member 1B1 (Homo sapiens, UniProt Q9Y6L6).
T1 sequence (Q9Y6L6 whole entry): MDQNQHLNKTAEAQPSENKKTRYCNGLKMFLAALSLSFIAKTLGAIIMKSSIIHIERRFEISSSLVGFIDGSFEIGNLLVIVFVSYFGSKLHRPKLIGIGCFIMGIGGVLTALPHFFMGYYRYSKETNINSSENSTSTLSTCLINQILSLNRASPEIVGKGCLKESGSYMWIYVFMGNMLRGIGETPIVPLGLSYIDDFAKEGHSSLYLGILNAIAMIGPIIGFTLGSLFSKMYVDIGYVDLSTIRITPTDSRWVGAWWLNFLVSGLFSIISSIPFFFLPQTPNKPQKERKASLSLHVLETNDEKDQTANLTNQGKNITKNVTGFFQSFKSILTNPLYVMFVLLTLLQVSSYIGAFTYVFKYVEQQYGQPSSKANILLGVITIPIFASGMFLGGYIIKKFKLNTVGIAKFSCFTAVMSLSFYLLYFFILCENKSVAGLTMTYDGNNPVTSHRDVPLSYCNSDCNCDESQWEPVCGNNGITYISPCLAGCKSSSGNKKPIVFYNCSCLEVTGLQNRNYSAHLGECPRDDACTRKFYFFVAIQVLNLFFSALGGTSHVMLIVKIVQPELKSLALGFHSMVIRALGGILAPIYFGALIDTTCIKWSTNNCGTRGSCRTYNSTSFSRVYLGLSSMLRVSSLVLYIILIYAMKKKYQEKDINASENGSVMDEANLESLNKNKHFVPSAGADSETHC
Nature of the data set: Substrates of transporters of clinical importance in the absorption and disposition of drugs, OATP1B1.

The target of data set [2] is T2, Solute carrier organic anion transporter family member 1B3 (Homo sapiens, UniProt Q9NPD5).
T2 sequence (Q9NPD5 whole entry): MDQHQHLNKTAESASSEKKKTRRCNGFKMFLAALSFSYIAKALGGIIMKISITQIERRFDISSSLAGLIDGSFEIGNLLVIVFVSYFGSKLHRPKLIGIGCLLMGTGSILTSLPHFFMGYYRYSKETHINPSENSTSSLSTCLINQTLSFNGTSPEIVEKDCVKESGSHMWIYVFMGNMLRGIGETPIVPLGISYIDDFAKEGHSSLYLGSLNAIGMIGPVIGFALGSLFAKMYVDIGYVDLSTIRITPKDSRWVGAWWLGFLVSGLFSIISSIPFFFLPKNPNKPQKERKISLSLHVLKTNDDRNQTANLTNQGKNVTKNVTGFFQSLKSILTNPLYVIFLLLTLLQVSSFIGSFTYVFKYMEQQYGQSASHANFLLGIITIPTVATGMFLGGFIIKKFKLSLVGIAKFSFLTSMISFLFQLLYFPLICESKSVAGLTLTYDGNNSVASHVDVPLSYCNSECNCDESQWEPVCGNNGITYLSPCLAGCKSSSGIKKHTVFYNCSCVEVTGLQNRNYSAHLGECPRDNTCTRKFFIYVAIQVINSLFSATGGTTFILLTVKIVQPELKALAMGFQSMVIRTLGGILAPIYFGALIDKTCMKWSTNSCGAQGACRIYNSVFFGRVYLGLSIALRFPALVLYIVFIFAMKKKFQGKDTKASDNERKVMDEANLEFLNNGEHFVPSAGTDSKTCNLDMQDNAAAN
Description: Substrates of transporters of clinical importance in the absorption and disposition of drugs, OATP1B3.

Data set [3] concerns the target ATP-binding cassette sub-family C member 2 (Homo sapiens, UniProt Q92887). Description: Substrates of transporters of clinical importance in the absorption and disposition of drugs, MRP2.
Data set [4] deals with T3, ATP-binding cassette sub-family C member 4 (Homo sapiens, UniProt O15439).
T3 sequence (O15439 whole entry): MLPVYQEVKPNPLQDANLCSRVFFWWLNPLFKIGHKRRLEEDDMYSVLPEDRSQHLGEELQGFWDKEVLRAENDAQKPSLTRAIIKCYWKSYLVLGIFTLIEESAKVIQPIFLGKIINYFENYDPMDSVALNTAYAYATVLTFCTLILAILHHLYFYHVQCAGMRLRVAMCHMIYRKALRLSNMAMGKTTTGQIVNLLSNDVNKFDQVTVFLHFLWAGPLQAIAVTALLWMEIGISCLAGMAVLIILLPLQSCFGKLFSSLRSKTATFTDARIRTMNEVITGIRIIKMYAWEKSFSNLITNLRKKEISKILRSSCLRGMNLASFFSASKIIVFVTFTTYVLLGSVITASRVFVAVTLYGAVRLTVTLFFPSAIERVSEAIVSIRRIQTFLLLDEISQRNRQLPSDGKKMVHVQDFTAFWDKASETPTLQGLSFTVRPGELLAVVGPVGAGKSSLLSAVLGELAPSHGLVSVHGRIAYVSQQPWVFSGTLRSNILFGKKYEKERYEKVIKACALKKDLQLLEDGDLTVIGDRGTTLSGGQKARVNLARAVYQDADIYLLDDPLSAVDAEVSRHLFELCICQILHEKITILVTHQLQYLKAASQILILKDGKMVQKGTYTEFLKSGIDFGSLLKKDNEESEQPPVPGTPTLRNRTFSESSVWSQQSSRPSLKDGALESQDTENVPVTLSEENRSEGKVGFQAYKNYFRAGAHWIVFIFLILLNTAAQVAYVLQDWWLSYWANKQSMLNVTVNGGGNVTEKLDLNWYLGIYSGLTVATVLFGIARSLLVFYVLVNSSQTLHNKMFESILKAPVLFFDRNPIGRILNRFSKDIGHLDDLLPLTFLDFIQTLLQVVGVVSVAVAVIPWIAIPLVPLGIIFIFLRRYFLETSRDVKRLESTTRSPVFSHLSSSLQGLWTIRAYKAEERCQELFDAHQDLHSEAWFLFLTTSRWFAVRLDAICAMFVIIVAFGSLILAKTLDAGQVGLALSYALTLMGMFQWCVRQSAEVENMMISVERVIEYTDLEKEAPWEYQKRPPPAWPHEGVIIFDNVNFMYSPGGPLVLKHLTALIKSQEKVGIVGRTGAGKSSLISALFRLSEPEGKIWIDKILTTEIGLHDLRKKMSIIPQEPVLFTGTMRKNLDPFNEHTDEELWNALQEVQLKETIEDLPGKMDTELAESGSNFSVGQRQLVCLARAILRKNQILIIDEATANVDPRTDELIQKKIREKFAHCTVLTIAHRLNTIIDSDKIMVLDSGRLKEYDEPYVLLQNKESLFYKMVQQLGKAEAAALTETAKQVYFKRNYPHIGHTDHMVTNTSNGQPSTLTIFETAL
Nature of the data set: Substrates of transporters of clinical importance in the absorption and disposition of drugs, MRP4.

For data set [5], the target named is ATP-dependent translocase ABCB1 (Homo sapiens, UniProt P08183). Description: Substrates of transporters of clinical importance in the absorption and disposition of drugs, MDR1.
Sequence of ATP-dependent translocase ABCB1 (P08183 whole entry): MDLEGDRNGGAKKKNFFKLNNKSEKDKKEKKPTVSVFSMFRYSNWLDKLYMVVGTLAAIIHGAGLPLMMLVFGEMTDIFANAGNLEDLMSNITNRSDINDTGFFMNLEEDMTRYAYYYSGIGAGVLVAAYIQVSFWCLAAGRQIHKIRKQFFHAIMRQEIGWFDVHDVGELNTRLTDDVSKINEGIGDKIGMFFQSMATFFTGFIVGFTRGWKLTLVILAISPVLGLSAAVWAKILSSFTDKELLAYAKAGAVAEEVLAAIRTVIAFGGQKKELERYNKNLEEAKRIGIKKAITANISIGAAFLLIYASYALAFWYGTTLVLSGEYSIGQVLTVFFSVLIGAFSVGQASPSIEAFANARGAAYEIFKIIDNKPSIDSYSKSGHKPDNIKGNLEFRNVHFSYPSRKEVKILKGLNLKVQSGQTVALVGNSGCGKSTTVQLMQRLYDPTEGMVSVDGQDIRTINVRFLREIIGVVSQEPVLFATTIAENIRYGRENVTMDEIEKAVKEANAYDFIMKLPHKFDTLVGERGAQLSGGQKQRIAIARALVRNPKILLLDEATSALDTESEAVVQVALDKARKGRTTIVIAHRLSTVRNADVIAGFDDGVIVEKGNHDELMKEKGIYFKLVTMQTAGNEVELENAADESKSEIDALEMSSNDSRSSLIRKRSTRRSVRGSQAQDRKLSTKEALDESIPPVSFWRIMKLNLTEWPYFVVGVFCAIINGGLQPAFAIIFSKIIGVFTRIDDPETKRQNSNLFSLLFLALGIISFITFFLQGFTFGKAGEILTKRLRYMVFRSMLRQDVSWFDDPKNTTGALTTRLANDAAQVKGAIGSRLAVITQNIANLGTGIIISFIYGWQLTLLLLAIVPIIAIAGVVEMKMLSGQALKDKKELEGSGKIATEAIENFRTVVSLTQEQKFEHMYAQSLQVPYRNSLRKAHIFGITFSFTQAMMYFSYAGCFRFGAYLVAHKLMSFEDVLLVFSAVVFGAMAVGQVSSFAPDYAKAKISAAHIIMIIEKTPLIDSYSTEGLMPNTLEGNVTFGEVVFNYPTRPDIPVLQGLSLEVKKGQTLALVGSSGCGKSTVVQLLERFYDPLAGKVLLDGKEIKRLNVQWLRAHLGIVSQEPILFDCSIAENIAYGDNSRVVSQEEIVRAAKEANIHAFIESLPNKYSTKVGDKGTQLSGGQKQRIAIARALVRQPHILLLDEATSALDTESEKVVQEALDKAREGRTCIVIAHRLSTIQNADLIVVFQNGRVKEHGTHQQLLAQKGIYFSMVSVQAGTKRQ
Data set [6] addresses T4, Solute carrier organic anion transporter family member 1A2 (Homo sapiens, UniProt P46721).
T4 sequence (P46721 whole entry): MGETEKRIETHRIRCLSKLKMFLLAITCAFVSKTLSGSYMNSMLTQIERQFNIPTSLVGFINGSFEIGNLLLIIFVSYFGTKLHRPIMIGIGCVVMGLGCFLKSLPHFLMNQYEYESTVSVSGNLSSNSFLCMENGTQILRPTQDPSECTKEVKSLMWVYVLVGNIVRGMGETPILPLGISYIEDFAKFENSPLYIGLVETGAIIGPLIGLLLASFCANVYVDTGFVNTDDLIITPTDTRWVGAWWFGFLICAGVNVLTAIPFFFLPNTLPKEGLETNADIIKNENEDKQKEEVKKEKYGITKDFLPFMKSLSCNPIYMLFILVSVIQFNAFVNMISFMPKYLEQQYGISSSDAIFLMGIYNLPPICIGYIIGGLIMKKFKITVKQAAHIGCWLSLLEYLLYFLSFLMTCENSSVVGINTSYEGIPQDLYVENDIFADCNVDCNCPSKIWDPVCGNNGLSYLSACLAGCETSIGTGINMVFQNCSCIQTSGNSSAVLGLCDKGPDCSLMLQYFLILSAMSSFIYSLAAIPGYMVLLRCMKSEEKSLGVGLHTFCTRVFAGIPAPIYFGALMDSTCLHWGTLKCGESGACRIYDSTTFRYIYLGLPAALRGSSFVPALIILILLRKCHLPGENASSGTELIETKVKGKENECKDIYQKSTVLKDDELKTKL
Nature of the data set: Substrates of transporters of clinical importance in the absorption and disposition of drugs, OATP1A2.

Data set [7] deals with T5, Solute carrier family 15 member 1 (Homo sapiens, UniProt P46059).
T5 sequence (P46059 whole entry): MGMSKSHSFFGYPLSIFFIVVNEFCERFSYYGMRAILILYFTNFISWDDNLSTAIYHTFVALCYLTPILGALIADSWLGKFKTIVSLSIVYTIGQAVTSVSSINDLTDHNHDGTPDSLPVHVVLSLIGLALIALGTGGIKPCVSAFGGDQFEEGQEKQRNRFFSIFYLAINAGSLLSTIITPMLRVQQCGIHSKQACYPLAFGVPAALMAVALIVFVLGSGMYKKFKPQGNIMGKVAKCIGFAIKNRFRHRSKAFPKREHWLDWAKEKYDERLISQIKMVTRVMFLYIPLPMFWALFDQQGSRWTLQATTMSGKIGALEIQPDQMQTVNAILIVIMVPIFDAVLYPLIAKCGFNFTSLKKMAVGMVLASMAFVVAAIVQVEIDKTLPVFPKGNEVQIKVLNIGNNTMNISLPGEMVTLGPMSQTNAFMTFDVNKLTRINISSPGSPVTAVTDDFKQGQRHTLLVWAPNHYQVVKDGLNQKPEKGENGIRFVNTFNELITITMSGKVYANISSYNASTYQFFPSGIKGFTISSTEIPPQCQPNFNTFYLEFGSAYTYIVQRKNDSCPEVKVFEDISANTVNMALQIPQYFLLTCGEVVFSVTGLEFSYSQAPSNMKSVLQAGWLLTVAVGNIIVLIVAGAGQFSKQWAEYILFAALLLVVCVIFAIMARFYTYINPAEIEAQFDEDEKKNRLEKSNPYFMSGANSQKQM
Description: Substrates of transporters of clinical importance in the absorption and disposition of drugs, PEPT1.

Data set [8] addresses T6, Solute carrier family 15 member 2 (Homo sapiens, UniProt Q16348).
T6 sequence (Q16348 whole entry): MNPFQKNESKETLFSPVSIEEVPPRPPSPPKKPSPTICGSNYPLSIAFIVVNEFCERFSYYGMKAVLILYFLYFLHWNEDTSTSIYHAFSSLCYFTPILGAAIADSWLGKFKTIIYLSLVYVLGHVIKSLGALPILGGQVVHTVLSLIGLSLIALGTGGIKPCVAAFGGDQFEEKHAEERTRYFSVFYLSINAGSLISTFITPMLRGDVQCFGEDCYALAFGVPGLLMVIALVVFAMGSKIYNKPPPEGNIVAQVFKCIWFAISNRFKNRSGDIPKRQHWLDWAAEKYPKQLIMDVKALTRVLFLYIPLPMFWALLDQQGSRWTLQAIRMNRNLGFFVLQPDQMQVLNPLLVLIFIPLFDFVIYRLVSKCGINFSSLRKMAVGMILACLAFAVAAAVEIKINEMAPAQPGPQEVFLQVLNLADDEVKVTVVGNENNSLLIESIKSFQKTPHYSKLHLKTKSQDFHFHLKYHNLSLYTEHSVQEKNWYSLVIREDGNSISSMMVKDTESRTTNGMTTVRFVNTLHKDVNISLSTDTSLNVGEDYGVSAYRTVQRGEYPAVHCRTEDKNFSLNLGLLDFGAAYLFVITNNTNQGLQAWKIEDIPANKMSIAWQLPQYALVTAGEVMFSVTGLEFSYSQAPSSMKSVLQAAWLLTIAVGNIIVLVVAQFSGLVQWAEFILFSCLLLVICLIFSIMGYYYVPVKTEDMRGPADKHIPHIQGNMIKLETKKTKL
Description: Substrates of transporters of clinical importance in the absorption and disposition of drugs, PEPT2.

Sequence of ATP-binding cassette sub-family C member 2 (Q92887 whole entry): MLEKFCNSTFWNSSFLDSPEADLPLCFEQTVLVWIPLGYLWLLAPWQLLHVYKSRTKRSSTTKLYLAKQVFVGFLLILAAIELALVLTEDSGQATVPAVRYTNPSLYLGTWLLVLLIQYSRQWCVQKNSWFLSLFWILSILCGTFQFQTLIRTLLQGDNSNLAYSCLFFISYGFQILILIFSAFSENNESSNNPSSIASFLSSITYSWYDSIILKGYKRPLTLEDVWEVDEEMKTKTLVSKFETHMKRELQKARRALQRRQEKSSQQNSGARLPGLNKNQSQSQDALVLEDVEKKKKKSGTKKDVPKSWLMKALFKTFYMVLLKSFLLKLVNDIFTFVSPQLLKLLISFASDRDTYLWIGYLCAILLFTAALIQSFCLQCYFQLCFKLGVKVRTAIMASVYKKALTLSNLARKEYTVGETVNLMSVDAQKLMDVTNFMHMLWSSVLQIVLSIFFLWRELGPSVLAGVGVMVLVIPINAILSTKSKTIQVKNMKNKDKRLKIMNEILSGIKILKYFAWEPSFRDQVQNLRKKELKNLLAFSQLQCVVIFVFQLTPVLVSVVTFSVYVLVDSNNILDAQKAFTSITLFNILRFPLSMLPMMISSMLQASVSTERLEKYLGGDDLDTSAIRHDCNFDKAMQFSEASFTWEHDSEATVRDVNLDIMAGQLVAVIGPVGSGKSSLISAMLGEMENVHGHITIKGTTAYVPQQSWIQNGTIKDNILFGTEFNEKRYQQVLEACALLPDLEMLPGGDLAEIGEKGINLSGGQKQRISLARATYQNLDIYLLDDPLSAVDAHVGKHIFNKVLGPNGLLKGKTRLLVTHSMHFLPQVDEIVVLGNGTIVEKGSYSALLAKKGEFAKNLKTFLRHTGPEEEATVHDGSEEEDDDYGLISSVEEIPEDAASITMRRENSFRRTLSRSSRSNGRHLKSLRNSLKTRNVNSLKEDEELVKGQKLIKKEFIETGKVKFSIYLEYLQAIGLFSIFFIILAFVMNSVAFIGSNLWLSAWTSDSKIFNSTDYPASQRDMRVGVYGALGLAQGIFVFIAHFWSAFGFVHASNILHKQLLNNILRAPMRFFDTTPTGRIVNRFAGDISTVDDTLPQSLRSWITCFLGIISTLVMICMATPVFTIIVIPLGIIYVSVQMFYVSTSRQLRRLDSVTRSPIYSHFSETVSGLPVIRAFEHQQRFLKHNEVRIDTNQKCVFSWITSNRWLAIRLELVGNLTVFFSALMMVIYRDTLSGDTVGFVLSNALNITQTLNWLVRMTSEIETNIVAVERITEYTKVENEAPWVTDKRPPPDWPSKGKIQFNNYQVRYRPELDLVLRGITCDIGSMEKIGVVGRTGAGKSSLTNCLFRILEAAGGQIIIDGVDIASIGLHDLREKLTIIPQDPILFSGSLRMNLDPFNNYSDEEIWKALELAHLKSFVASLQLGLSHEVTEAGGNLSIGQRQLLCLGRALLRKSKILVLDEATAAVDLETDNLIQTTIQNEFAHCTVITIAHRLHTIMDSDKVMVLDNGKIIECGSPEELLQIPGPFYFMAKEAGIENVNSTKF

Consider `CCCCC(=O)N(Cc1ccc(-c2ccccc2-c2nnn[nH]2)cc1)[C@H](C(=O)O)C(C)C`, for which the Activity entry in data set [1], in data set [2] and in data set [3] was “transporter substrate” throughout.

Consider `CCc1c2c(nc3ccc(OC[C@@H]4O[C@H](C(=O)O)[C@@H](O)[C@H](O)[C@H]4O)cc13)-c1cc3c(c(=O)n1C2)COC(=O)[C@]3(O)CC`, for which, in data set [3], the Activity result is recorded as “transporter substrate”.

With `Nc1nc2c(ncn2[C@@H]2O[C@@H]3COP(=O)(O)O[C@H]3[C@H]2O)c(=O)[nH]1`, in data set [4], the Activity entry is “transporter substrate”.

`COc1ccc2cc3[n+](cc2c1OC)CCc1cc2c(cc1-3)OCO2.[Cl-]` [BERBERINE CHLORIDE]: the Activity entry in data set [5] is “transporter substrate”.

With `COc1cccc2c1C(=O)c1c(O)c3c(c(O)c1C2=O)C[C@@](O)(C(=O)CO)C[C@@H]3O[C@H]1C[C@H](N)[C@H](O)[C@H](C)O1` [DOXORUBICIN], the Activity result in data set [5] was “transporter substrate”.

On to `COc1cc([C@@H]2c3cc4c(cc3[C@@H](O[C@@H]3O[C@@H]5CO[C@@H](C)O[C@H]5[C@H](O)[C@H]3O)[C@H]3COC(=O)[C@H]23)OCO4)cc(OC)c1O` [ETOPOSIDE], for which the Activity entry in data set [3] was “transporter substrate”.

Turning to `CN(C)C(=O)C(CCN1CCC(O)(c2ccc(Cl)cc2)CC1)(c1ccccc1)c1ccccc1` [LOPERAMIDE], in data set [5], the Activity entry is given as “transporter substrate”.

For `C[C@]12CC[C@H](OS(=O)(=O)O)CC1=CC[C@@H]1[C@@H]2CC[C@]2(C)C(=O)CC[C@@H]12` [PRASTERONE SULFURIC ACID], the Activity result in data set [6] and in data set [4] was “transporter substrate” in each case.

In the case of `CC(C)C[C@H](NC(=O)[C@@H](O)[C@H](N)Cc1ccccc1)C(=O)O` [UBENIMEX], the Activity result in data set [7] and in data set [8] was “transporter substrate” each time.

On to `CC(C)[C@H](N)C(=O)OCCOCn1cnc2c(=O)[nH]c(N)nc21` [VALACYCLOVIR], for which the Activity entry in data set [7] and in data set [8] was “transporter substrate” in each case.

These data come from ChEMBL document CHEMBL1743141, “Membrane transporters in drug development” (Nat Rev Drug Discov, 2010).
